Reference: patent publication US4973708A, “3-hydroxy-N-methylpyrrolidone and preparation thereof” (University of Kentucky Research Foundation, priority 1988, dated 1990)

How the values were obtained:
[1] = type: in vitro ADME, human
Protocol: Standard Franz diffusion cells (15 mm i.d., o-ring design) were manufactured by Crown Glass Inc., Somerville, N.J. The cell caps were modified with ground glass joints to fit 14/20 ground glass stoppers. A Franz diffusion cell drive console F-DCD-9 was also manufactured by Crown Glass. A Vandercamp 2500 recirculating water bath was used to maintain the cells at 37° C. Split thickness human allograph tissues (0.015 in. thickness), thigh back area, was obtained from the Tissue Transplant Bank, St. Agnes Medical Center, Philadelphia, Pa. Samples were counted in a Packard Auto-Gamma Scintillation Spectrometer.
Sterile Saline (0.9% Sodium Chloride USP, Travenol, NDC 0338-0049-04 lot co56747), Albumin (Bovine, fraction v, Sigma A-4503 lot 127F-0877), N-Methyl-2-pyrrolidone (Aldrich 99+ % Cat No. 24,279-9 lot 04402TP), Neomycin Sulfate (Sigma N-1876 lot 66F-0151), absolute ethanol (Midwest Solvents Company of Illinois).
Human allograph tissue, which had been stored at -70° C., was thawed and immediately mounted in a Franz type diffusion cell. The receptor chamber was filled with normal saline containing 2% albumin and 0.05% neomycin sulfate. Each cell was maintained at 37° C. and stirred at 600 rpm. After the cells had been allowed to equilibrate for 4 to 6 hours, 200 ul of a saturated ethanolic solution of 5-chloro-8-hydroxy-7-[^125I]-iodoquinoline (approx. 70 uCi, 0.44 mg) was applied to the donor side of each cell. This was immediately followed by either 200 μl of absolute ethanol for the control cells, 200 μl of 50% (w/v 3-hydroxy-N-methylpyrrolidone in ethanol or an equimolar ethanolic solution of N-methylpyrrolidone (43.1% w/v). The cells were then capped with ground glass stoppers. At various time intervals, over an 80-100 hour period, the entire contents of the receptor chamber was removed with a 10 cc syringe and placed into a vial. The receptor chamber was then refilled with fresh solution. After the last collection these vials were placed in a well-type gamma counter and counted for I-125 activity.
At the time of dosing 200 μl of the saturated 5-chloro-8-hydroxy-7-[^125 I]-iodoquinoline solution was placed into separate vials to calculate the amount of activity (dose) applied to the skin.
In this example, 3-hydroxy-N-methyl pyrrolidone was tested for its use as a percutaneous penetration enhancer. In vitro studies were carried out using Franz type diffusion cells. The penetration enhancing properties of 3-hydroxy-N-methylpyrrolidone was compared to N-methyl pyrrolidone, a compound known to enhance the penetration of drugs through the skin.
For these in vitro studies radioiodinated 5-chloro-8-hydroxy-7-iodoquinoline was chosen as a model drug. This drug, known as Clioquinol USP, is currently marketed by Ciba (Ciba Pharmaceutical Company, 556 Morris Avenue, Summit, N.J. 07901), as a topical antibacterial/antifungal agent trade named Vioform™. […] This radiolabeled marker is conveniently used to follow the penetration of the drug through the skin.
Franz diffusion cells are designed to mimic in vivo conditions. A finite dose of drug is applied to the stratum corneum side of the skin and penetration is followed by analyzing for the drug in the receptor phase underneath. In these studies the amount of drug crossing the skin barrier is estimated by counting total radioactivity in the receptor phase.
In a preliminary study, the transdermal absorption of Clioquinol was evaluated in the presence of 3-hydroxy-N-methylpyrrolidone, N-methylpyrrolidone, and in the absence of enhancer. An ethanolic solution of [I-131]-Clioquinol was applied to 3 cells followed by either ethanol (control), 50% 3-hydroxy-N-methylpyrrolidone in ethanol or an equimolar solution of N-methylpyrrolidone. In FIG. 1, the percent penetration of 5-chloro-8-hydroxy-7-[^131 I]-iodoquinoline through human skin is illustrated. The amount of 5-chloro-8-hydroxy-7-[^131 I]-iodoquinolineactivity applied is equal to 100%.
The study was repeated using I-125 labeled Clioquinol. […]

[2] = cited from earlier work
[3] = Metabolism of N-methylpyrrolidone, metabolite excreted in urine
Description: As pointed out above, a penetration enhancer is a chemical compound which, when included in a transdermal formulation, affects the skin of a human by increasing permeability of the skin to allow more of a drug to be absorbed in a shorter period of time. The penetration enhancer is normally contained in a formulation, called a transdermal composition, in combination with the appropriate drug to be delivered and other known components of the formulation. […] As mentioned herein, N-methylpyrrolidone is a known penetration enhancer. In studies leading to this invention using the prior art compound, N-methyl-2-pyrrolidone, it was discovered that a major metabolite of N-methylpyrrolidone which is excreted in the urine is 3-hydroxy-N-methyl-2-pyrrolidone. […] Further, 3-hydroxy-N-methylpyrrolidone is a "softer" xenobiotic to the body because no energy will be expended in metabolic processes after the compound's absorption into the systemic circulation. Also, in view of the apparent safety of N-methylpyrrolidone, its major metabolite, 3-hydroxy-N-methylpyrrolidone, would be expected to have an even lower toxicity.

[4] = animal and human experiments; cited from earlier work

| Compound | amount of Clioquinol penetrating the skin, times greater than with N-methylpyrrolidone [1] [times] | amount of Clioquinol penetrating the skin, times higher than the control [1] [times] | amount of I-131 Clioquinol penetrated, times greater than the control [1] [times] | amount of I-131 Clioquinol penetrated, times more than with N-methylpyrrolidone [1] [times] | effectiveness in enhancing the absorption of drugs (conclusion in words) [1] | percent of Clioquinol absorbed in the presence of enhancer [1] [%] | percent penetration of I-125 labeled Clioquinol through human skin (absorbed), with enhancer [1] [%] | percent penetration of [I-131]-Clioquinol through human skin (absorbed), with enhancer [1] [%] | relative order of enhancement of Clioquinol penetration [1] | percent penetration of I-125 labeled Clioquinol through human skin (absorbed), control [1] [%] | percent penetration of [I-131]-Clioquinol through human skin (absorbed), control [1] [%] | time in which the same amount of Clioquinol was absorbed, absence of enhancer [1] [h] | absorption through the skin ([2]; reason for choice as model drug) | major metabolite excreted in the urine [3] | irritation or sensitization potential [4] | penetration enhancement ([2]; literature) |
| --- | --- | --- | --- | --- | --- | --- | --- | --- | --- | --- | --- | --- | --- | --- | --- | --- |
| CN1CCC(O)C1=O (stereo not shown) [3-hydroxy-N-methylpyrrolidone, 3-hydroxy-N-methyl-2-pyrrolidone] | 1.3 | 1.8 | 3.9 | 1.5 | more effective than N-methylpyrrolidone | 19 | 40.0 | 10.2 | 3-hydroxy-N-methylpyrrolone >N-methylpyrrolone>control |  |  |  |  |  |  |  |
| Oc1c(I)cc(Cl)c2cccnc12 [Clioquinol, 5-chloro-8-hydroxy-7-iodoquinoline] |  |  |  |  |  |  |  |  |  | 19.5 | 2.6 | 85 | absorbed very slowly through the skin |  |  |  |
| CN1CCCC1=O [N-methylpyrrolidone, N-methyl-2-pyrrolidone] |  |  |  |  |  |  | 27.8 | 6.5 | N-methylpyrrolone>control |  |  |  |  | 3-hydroxy-N-methyl-2-pyrrolidone | very little irritation or sensitization potential | effective penetration enhancer |
